Assay results reported in BindingDB's records for doi:10.1016/j.ejmech.2019.02.016 (National Health Research Institutes, 2019).

test: Inhibition of NS5A in HCV genotype 1b infected in human HuH7 replicon cells assessed as reduction in subgenomic viral RNA replication treated for 2 days followed by compound washout and subsequent compound dosing measured after 1 day by SEAP reporter gene assay

Row | SMILES | EC50 [nM]
1 | CCCC[C@@H](NC(=O)C1CC1)C(=O)N1CCC[C@H]1c1ncc(-c2ccc(-c3ccc(-c4cnc([C@@H]5CCCN5C(=O)[C@@H](CCCC)NC(=O)C5CC5)s4)cc3)cc2)s1 | 358
2 | CN1CCN(CCC(=O)N[C@H](C(=O)N2CCC[C@H]2c2ncc(-c3ccc(-c4ccc(-c5cnc([C@@H]6CCCN6C(=O)[C@H](NC(=O)CCN6CCN(C)CC6)c6ccccc6)s5)cc4)cc3)s2)c2ccccc2)CC1 | 102
3 | CN(C)CCC(=O)N[C@H](C(=O)N1CCC[C@H]1c1ncc(-c2ccc(-c3ccc(-c4cnc([C@@H]5CCCN5C(=O)[C@H](NC(=O)CCN(C)C)c5ccccc5)s4)cc3)cc2)s1)c1ccccc1 | 6.9
4 | O=C(N[C@H](C(=O)N1CCC[C@H]1c1ncc(-c2ccc(-c3ccc(-c4cnc([C@@H]5CCCN5C(=O)[C@H](NC(=O)c5ccsc5)c5ccccc5)s4)cc3)cc2)s1)c1ccccc1)c1ccsc1 | 122
5 | O=C(N[C@H](C(=O)N1CCC[C@H]1c1ncc(-c2ccc(-c3ccc(-c4cnc([C@@H]5CCCN5C(=O)[C@H](NC(=O)c5ccccn5)c5ccccc5)s4)cc3)cc2)s1)c1ccccc1)c1ccccn1 | 2640
6 | O=C(N[C@H](C(=O)N1CCC[C@H]1c1ncc(-c2ccc(-c3ccc(-c4cnc([C@@H]5CCCN5C(=O)[C@H](NC(=O)C5CCCC5)c5ccccc5)s4)cc3)cc2)s1)c1ccccc1)C1CCCC1 | 1.1
7 | CCCCCC(=O)N[C@H](C(=O)N1CCC[C@H]1c1ncc(-c2ccc(-c3ccc(-c4cnc([C@@H]5CCCN5C(=O)[C@H](NC(=O)CCCCC)c5ccccc5)s4)cc3)cc2)s1)c1ccccc1 | 2.4
8 | O=C(CCN1CCOCC1)N[C@@H](C(=O)N1CCC[C@H]1c1ncc(-c2ccc(-c3ccc(-c4cnc([C@@H]5CCCN5C(=O)[C@H](NC(=O)CCN5CCOCC5)c5ccccc5)s4)cc3)cc2)s1)c1ccccc1 | 0.2
9 | O=C(CCn1cccc1)N[C@@H](C(=O)N1CCC[C@H]1c1ncc(-c2ccc(-c3ccc(-c4cnc([C@@H]5CCCN5C(=O)[C@H](NC(=O)CCn5cccc5)c5ccccc5)s4)cc3)cc2)s1)c1ccccc1 | 0.017
10 | O=C(N[C@@H](C(=O)N1CCC[C@H]1c1ncc(-c2ccc(-c3ccc(-c4cnc([C@@H]5CCCN5C(=O)[C@H](NC(=O)c5ccoc5)c5ccccc5)s4)cc3)cc2)s1)c1ccccc1)c1ccoc1 | 0.08
11 | O=C(Cc1ccccc1)N[C@@H](C(=O)N1CCC[C@H]1c1ncc(-c2ccc(-c3ccc(-c4cnc([C@@H]5CCCN5C(=O)[C@H](NC(=O)Cc5ccccc5)c5ccccc5)s4)cc3)cc2)s1)c1ccccc1 | 0.13
12 | O=C(N[C@@H](C(=O)N1CCC[C@H]1c1ncc(-c2ccc(-c3ccc(-c4cnc([C@@H]5CCCN5C(=O)[C@H](NC(=O)C5CC5)c5ccccc5)s4)cc3)cc2)s1)c1ccccc1)C1CC1 | 0.003
13 | CCCC(=O)N[C@@H](C(=O)N1CCC[C@H]1c1ncc(-c2ccc(-c3ccc(-c4cnc([C@@H]5CCCN5C(=O)[C@H](NC(=O)CCC)c5ccccc5)s4)cc3)cc2)s1)c1ccccc1 | 0.013
14 | CS(=O)(=O)N[C@@H](C(=O)N1CCC[C@H]1c1ncc(-c2ccc(-c3ccc(-c4cnc([C@@H]5CCCN5C(=O)[C@H](NS(C)(=O)=O)c5ccccc5)s4)cc3)cc2)s1)c1ccccc1 | 3.4
15 | CCCC[C@H](NC(=O)OC)C(=O)N1CCC[C@H]1c1ncc(-c2ccc(-c3ccc(-c4cnc([C@@H]5CCCN5C(=O)[C@H](CCCC)NC(=O)OC)s4)cc3)cc2)s1 | 237
16 | O=C(CCN1CCCC1)N[C@@H](C(=O)N1CCC[C@H]1c1ncc(-c2ccc(-c3ccc(-c4cnc([C@@H]5CCCN5C(=O)[C@H](NC(=O)CCN5CCCC5)c5ccccc5)s4)cc3)cc2)s1)c1ccccc1 | 4
17 | C[C@@H](NC(=O)C1CC1)C(=O)N1CCC[C@H]1c1ncc(-c2ccc(-c3ccc(-c4cnc([C@@H]5CCCN5C(=O)[C@@H](C)NC(=O)C5CC5)s4)cc3)cc2)s1 | 115
18 | O=C(CCN1CCCCC1)N[C@@H](C(=O)N1CCC[C@H]1c1ncc(-c2ccc(-c3ccc(-c4cnc([C@@H]5CCCN5C(=O)[C@H](NC(=O)CCN5CCCCC5)c5ccccc5)s4)cc3)cc2)s1)c1ccccc1 | 0.89
19 | O=C(N[C@@H](C(=O)N1CCC[C@H]1c1ncc(-c2ccc(-c3ccc(-c4cnc([C@@H]5CCCN5C(=O)[C@H](NC(=O)N5CCOCC5)c5ccccc5)s4)cc3)cc2)s1)c1ccccc1)N1CCOCC1 | 0.02
20 | CC(C)C(=O)N[C@@H](C(=O)N1CCC[C@H]1c1ncc(-c2ccc(-c3ccc(-c4cnc([C@@H]5CCCN5C(=O)[C@H](NC(=O)C(C)C)c5ccccc5)s4)cc3)cc2)s1)c1ccccc1 | 0.009
21 | CS(=O)(=O)N[C@H](C(=O)N1CCC[C@H]1c1ncc(-c2ccc(-c3ccc(-c4cnc([C@@H]5CCCN5C(=O)[C@H](NS(C)(=O)=O)c5ccccc5)s4)cc3)cc2)s1)c1ccccc1 | 149
22 | O=C(N[C@H](C(=O)N1CCC[C@H]1c1ncc(-c2ccc(-c3ccc(-c4cnc([C@@H]5CCCN5C(=O)[C@H](NC(=O)c5ccncc5)c5ccccc5)s4)cc3)cc2)s1)c1ccccc1)c1ccncc1 | 0.37
23 | CC(C)(C)[C@@H](NC(=O)C1CC1)C(=O)N1CCC[C@H]1c1ncc(-c2ccc(-c3ccc(-c4cnc([C@@H]5CCCN5C(=O)[C@H](NC(=O)C5CC5)C(C)(C)C)s4)cc3)cc2)s1 | 1600
24 | CCN(CC)CCC(=O)N[C@H](C(=O)N1CCC[C@H]1c1ncc(-c2ccc(-c3ccc(-c4cnc([C@@H]5CCCN5C(=O)[C@H](NC(=O)CCN(CC)CC)c5ccccc5)s4)cc3)cc2)s1)c1ccccc1 | 22
25 | O=C(Cc1ccccc1)N[C@H](C(=O)N1CCC[C@H]1c1ncc(-c2ccc(-c3ccc(-c4cnc([C@@H]5CCCN5C(=O)[C@H](NC(=O)Cc5ccccc5)c5ccccc5)s4)cc3)cc2)s1)c1ccccc1 | 2.9
26 | O=C(N[C@@H](C(=O)N1CCC[C@H]1c1ncc(-c2ccc(-c3ccc(-c4cnc([C@@H]5CCCN5C(=O)[C@H](NC(=O)c5cccnc5)c5ccccc5)s4)cc3)cc2)s1)c1ccccc1)c1cccnc1 | 0.13
27 | CC(=O)N[C@H](C(=O)N1CCC[C@H]1c1ncc(-c2ccc(-c3ccc(-c4cnc([C@@H]5CCCN5C(=O)[C@H](NC(C)=O)c5ccccc5)s4)cc3)cc2)s1)c1ccccc1 | 0.59
28 | CC(C)C(=O)N[C@H](C(=O)N1CCC[C@H]1c1ncc(-c2ccc(-c3ccc(-c4cnc([C@@H]5CCCN5C(=O)[C@H](NC(=O)C(C)C)c5ccccc5)s4)cc3)cc2)s1)c1ccccc1 | 0.31
29 | O=C(N[C@@H](C(=O)N1CCC[C@H]1c1ncc(-c2ccc(-c3ccc(-c4cnc([C@@H]5CCCN5C(=O)[C@H](NC(=O)c5ccncc5)c5ccccc5)s4)cc3)cc2)s1)c1ccccc1)c1ccncc1 | 0.011
